Values joined by “and” are separate entries in the source; they are usually repeats but may differ in a detail not shown here. Equal values may be shown once. Inconclusive results and toxic doses are left out. Residues, ends and D or L forms follow the SMILES beside them. *: point of attachment. Cbz = O=C(OCc1ccccc1)*
Test system: CD2F1 mice, L1210 leukemia ip, survival T/C
Assay: NCI In Vivo Anticancer Drug Screen. Data for tumor model L1210 Leukemia (intraperitoneal) in CD2F1 (CDF1) mice
Details: endpoint: mean survival time, higher = longer survival
In short: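 Activity against a transplanted murine tumor was judged by comparing the compound group with a vehicle group. The outcome in the treated animals was divided by that in the controls.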

[1] = dose: 1.5 mg/kg/injection, schedule: Q01DX009 (ip), vehicle: saline
[2] = dose: 50.0 mg/kg/injection, schedule: Q04DX003 (ip), vehicle: saline
[3] = dose: 75.0 mg/kg/injection, schedule: Q01DX001 (ip), vehicle: saline
[4] = dose: 150.0 mg/kg/injection, schedule: Q01DX001 (ip), vehicle: saline
[5] = dose: 300.0 mg/kg/injection, schedule: Q01DX001 (ip), vehicle: saline
[6] = dose: 100.0 mg/kg/injection, schedule: Q01DX001 (ip), vehicle: saline with Tween-80
[7] = dose: 200.0 mg/kg/injection, schedule: Q01DX001 (ip), vehicle: saline with Tween-80
[8] = dose: 400.0 mg/kg/injection, schedule: Q01DX001 (ip), vehicle: saline with Tween-80
[9] = dose: 100.0 mg/kg/injection, schedule: Q04DX003 (ip), vehicle: saline with Tween-80
[10] = dose: 200.0 mg/kg/injection, schedule: Q04DX003 (ip), vehicle: saline with Tween-80
[11] = dose: 400.0 mg/kg/injection, schedule: Q04DX003 (ip), vehicle: saline with Tween-80
[12] = dose: 100.0 mg/kg/injection, schedule: Q01DX009 (ip), vehicle: saline with Tween-80
[13] = dose: 200.0 mg/kg/injection, schedule: Q01DX009 (ip), vehicle: saline with Tween-80
[14] = dose: 400.0 mg/kg/injection, schedule: Q01DX009 (ip), vehicle: saline with Tween-80
[15] = dose: 75.0 mg/kg/injection, schedule: Q01DX001 (ip), vehicle: other
[16] = dose: 150.0 mg/kg/injection, schedule: Q01DX001 (ip), vehicle: other
[17] = dose: 50.0 mg/kg/injection, schedule: Q01DX009 (ip), vehicle: Klucel (hydroxypropylcellulose) (HPC)
[18] = dose: 100.0 mg/kg/injection, schedule: Q01DX009 (ip), vehicle: Klucel (hydroxypropylcellulose) (HPC)
[19] = dose: 200.0 mg/kg/injection, schedule: Q01DX009 (ip), vehicle: Klucel (hydroxypropylcellulose) (HPC)
[20] = dose: 50.0 mg/kg/injection, schedule: Q01DX009 (ip), vehicle: saline with Tween-80

With `O=C(OC(CC[P+](c1ccccc1)(c1ccccc1)c1ccccc1)(C(=O)c1ccccc1)c1ccccc1)c1ccccc1` (centres undefined) the T/C (dose: 0.38 mg/kg/injection, schedule: Q01DX009 (ip), vehicle: saline) was 104 % of control, the T/C (dose: 0.75 mg/kg/injection, schedule: Q01DX009 (ip), vehicle: saline) was 105 % of control and the T/C [1] was 93 % of control.
In the case of `CC(C)[NH-].CC(C)[NH-].O.O.[Cl][Pt+2][Cl]`, the T/C [1] is reported as 118 % of control, the T/C (dose: 1.57 mg/kg/injection, schedule: Q01DX009 (ip), vehicle: saline) is reported as 115 % of control and the T/C (dose: 100.0 mg/kg/injection, schedule: Q01DX001 (ip), vehicle: saline) is reported as 112 % of control. For the same molecule, the T/C (dose: 200.0 mg/kg/injection, schedule: Q01DX001 (ip), vehicle: saline) was 90 % of control.
With `COc1ccc(C2=NNC(=O)CC2)cc1OC` the T/C (dose: 12.5 mg/kg/injection, schedule: Q04DX003 (ip), vehicle: saline) was 107 % of control, the T/C (dose: 25.0 mg/kg/injection, schedule: Q04DX003 (ip), vehicle: saline) was 115 % of control and the T/C [2] was 98 % of control.
`CN(C=O)NC(=O)Nc1ccccc1` was tested, and the T/C [3] was 100 % of control, the T/C [4] was 100 % of control and the T/C [5] was 102 % of control.
With `CC1(C)OC2C(COC(=O)Oc3ccccc3)OC(n3cnc4c(=O)[nH]cnc43)C2O1` (centres undefined) the T/C [6] was 101 % of control, the T/C (dose: 100.0 mg/kg/injection, schedule: Q04DX002 (ip), vehicle: saline with Tween-80) was 102 % of control and the T/C [7] was 97 % of control. For the same molecule, the T/C (dose: 200.0 mg/kg/injection, schedule: Q04DX002 (ip), vehicle: saline with Tween-80) was 94 % of control, the T/C [8] was 94 % of control and the T/C (dose: 400.0 mg/kg/injection, schedule: Q04DX002 (ip), vehicle: saline with Tween-80) was 97 % of control.
For `O=C(c1ccc2ccccc2c1O)N1CCCCC1`, the T/C [9] was 101 % of control, the T/C [10] was 103 % of control and the T/C [11] was 101 % of control.
`CN1CCC(CCOCc2ccccc2)(CN2c3ccccc3Sc3ccccc32)C1` (centres undefined) was tested, and the T/C (dose: 6.25 mg/kg/injection, schedule: Q04DX003 (ip), vehicle: saline with Tween-80) was 106 % of control, the T/C (dose: 12.5 mg/kg/injection, schedule: Q04DX003 (ip), vehicle: saline with Tween-80) was 110 % of control and the T/C (dose: 25.0 mg/kg/injection, schedule: Q04DX003 (ip), vehicle: saline with Tween-80) was 104 % of control.
`Nc1ccc2c(c1)C=CCS2` was tested, and the T/C [12] was 102 % of control, the T/C [9] was 104 % of control and the T/C [13] was 98 % of control. For the same molecule, the T/C [10] was 98 % of control, the T/C [14] was 90 % of control and the T/C [11] was 104 % of control.
With `CCCCCCC(C)=O` the T/C [9] was 98 % of control, the T/C [10] was 96 % of control and the T/C [11] was 91 % of control.
In the case of `CC(C)OC(=O)Nc1ccc(F)cc1`, the T/C (dose: 100.0 mg/kg/injection, schedule: Q01DX009 (ip), vehicle: other) is reported as 94 % of control, the T/C (dose: 200.0 mg/kg/injection, schedule: Q01DX009 (ip), vehicle: other) is reported as 91 % of control and the T/C (dose: 400.0 mg/kg/injection, schedule: Q01DX009 (ip), vehicle: other) is reported as 100 % of control.
`COc1ccc(C2NN(C)C3(O)C(=O)N(C4CCCCC4)CC23)cc1` (centres undefined) was tested, and the T/C [6] was 107 % of control, the T/C [7] was 94 % of control and the T/C [8] was 96 % of control.
`C/C=C(\C)C1(CCC)C(=O)NC(=S)NC1=O` was tested, and the T/C [15] was 106 % of control and the T/C [16] was 116 % of control.
For `COc1cc([N+](=O)[O-])ccc1NC(=O)Oc1ccccc1F`, the T/C [12] was 109 % of control, the T/C [13] was 109 % of control and the T/C [14] was 108 % of control.
In the case of `CNC[C@@H](O)c1ccc(O)c(O)c1`, the T/C (dose: 1.0 mg/kg/injection, schedule: Q01DX001 (ip), vehicle: saline) is reported as 97 % of control, the T/C (dose: 2.0 mg/kg/injection, schedule: Q01DX001 (ip), vehicle: saline) is reported as 100 % of control and the T/C (dose: 2.5 mg/kg/injection, schedule: Q01DX009 (ip), vehicle: saline) is reported as 104 % of control. For the same molecule, the T/C (dose: 4.0 mg/kg/injection, schedule: Q01DX001 (ip), vehicle: saline) was 107 % of control, the T/C (dose: 5.0 mg/kg/injection, schedule: Q01DX009 (ip), vehicle: saline) was 104 % of control and the T/C (dose: 8.0 mg/kg/injection, schedule: Q01DX001 (ip), vehicle: saline) was 103 % of control.
With `Nc1nc(=S)c2ncn(C3OC(CO)C4OC43)c2[nH]1` (centres undefined) the T/C [3] was 101 % of control, the T/C [4] was 98 % of control and the T/C [5] was 97 % of control.
With `CCC[CH2][Sn]1([CH2]CCC)[O]C2C(CO)OC(n3ccc(N)nc3=O)C2[O]1` (centres undefined) the T/C (dose: 0.78 mg/kg/injection, schedule: Q01DX009 (ip), vehicle: Klucel (hydroxypropylcellulose) (HPC)) was 116 % of control, the T/C (dose: 1.56 mg/kg/injection, schedule: Q01DX005 (ip), vehicle: other) was 104 % of control and the T/C (dose: 1.56 mg/kg/injection, schedule: Q01DX009 (ip), vehicle: Klucel (hydroxypropylcellulose) (HPC)) was 113 % of control. The T/C (dose: 3.13 mg/kg/injection, schedule: Q01DX005 (ip), vehicle: other) was 104 % of control, the T/C (dose: 6.25 mg/kg/injection, schedule: Q01DX005 (ip), vehicle: other) was 113 % of control and the T/C (dose: 6.25 mg/kg/injection, schedule: Q01DX009 (ip), vehicle: Klucel (hydroxypropylcellulose) (HPC)) was 115 % of control.
`Nc1ccccc1OCCCn1cc(-c2ccc(Cl)c(Cl)c2)c(N)nc1=O` was tested, and the T/C [17] was 94 % of control, the T/C [18] was 101 % of control and the T/C [19] was 90 % of control.
For `COC(=O)CC(NC(=O)C(CSC(c1ccccc1)(c1ccccc1)c1ccccc1)NC(c1ccccc1)(c1ccccc1)c1ccccc1)C(=O)OC` (centres undefined), the T/C (dose: 50.0 mg/kg/injection, schedule: Q01DX009 (ip), vehicle: saline) was 95 % of control, the T/C (dose: 100.0 mg/kg/injection, schedule: Q01DX009 (ip), vehicle: saline) was 92 % of control and the T/C (dose: 200.0 mg/kg/injection, schedule: Q01DX009 (ip), vehicle: saline) was 89 % of control. The T/C (dose: 400.0 mg/kg/injection, schedule: Q01DX009 (ip), vehicle: saline) was 91 % of control.
In the case of `Nc1cc2c(nnn2C2OC(CO)C(O)C2O)c(=O)[nH]1` (centres undefined), the T/C (dose: 12.5 mg/kg/injection, schedule: Q01DX005 (ip), vehicle: distilled water + Tween-80) is reported as 98 % of control, the T/C (dose: 25.0 mg/kg/injection, schedule: Q01DX005 (ip), vehicle: distilled water + Tween-80) is reported as 98 % of control and the T/C (dose: 50.0 mg/kg/injection, schedule: Q01DX005 (ip), vehicle: distilled water + Tween-80) is reported as 102 % of control. For the same molecule, the T/C (dose: 100.0 mg/kg/injection, schedule: Q01DX005 (ip), vehicle: distilled water + Tween-80) was 98 % of control and the T/C (dose: 200.0 mg/kg/injection, schedule: Q01DX005 (ip), vehicle: distilled water + Tween-80) was 88 % of control.
For `O=C(O)CC1OCC=C2C[N+]3([O-])CCC45c6ccccc6NC4C1C2CC53` (centres undefined), the T/C [15] was 100 % of control and the T/C [16] was 98 % of control.
For `O=C(OCC(O)C(O)C(O)C(O)COC(=O)c1ccccc1)c1ccccc1` (centres undefined) (tested in a mixture with another compound), the T/C [20] was 98 % of control, the T/C [12] was 110 % of control and the T/C [13] was 98 % of control.
For `COc1ccc(OC)c(NC(=O)Oc2cccc(NC(C)=O)c2)c1`, the T/C [17] was 105 % of control, the T/C [20] was 103 % of control and the T/C [18] was 102 % of control. The T/C [12] was 97 % of control, the T/C [19] was 100 % of control and the T/C [13] was 272 % of control and 100 % of control. The T/C (dose: 400.0 mg/kg/injection, schedule: Q01DX009 (ip), vehicle: Klucel (hydroxypropylcellulose) (HPC)) was 102 % of control and the T/C [14] was 92 % of control.
With `CC(=O)C(Cl)C(C)=O.CC(=O)C(Cl)C(C)=O.CO.CO.[Ni]` the T/C [2] was 108 % of control.
In the case of `CCCCC(CSC#N)SC#N` (centres undefined), the T/C (dose: 6.25 mg/kg/injection, schedule: Q04DX002 (ip), vehicle: saline with Tween-80) is reported as 92 % of control and the T/C (dose: 12.5 mg/kg/injection, schedule: Q04DX002 (ip), vehicle: saline with Tween-80) is reported as 88 % of control.
For `O/N=C(/CC(O)(c1ccccc1)c1ccccc1)c1ccccc1`, the T/C [3] was 98 % of control, the T/C [4] was 103 % of control and the T/C [5] was 95 % of control.
With `NC(=O)CNC(=O)CNC(=O)CNC(=O)OCc1ccccc1` (Cbz-Gly-Gly-Gly-NH2) the T/C (dose: 12.5 mg/kg/injection, schedule: Q01DX009 (ip), vehicle: saline with Tween-80) was 105 % of control, the T/C (dose: 25.0 mg/kg/injection, schedule: Q01DX009 (ip), vehicle: saline with Tween-80) was 102 % of control and the T/C [20] was 95 % of control.
